According to ChEMBL document CHEMBL1201862, “PubChem BioAssay data set” (2004):
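Values below derive from 48-hour exposures of cells grown in 96-well plates, with endpoints linearly interpolated between the two concentrations bracketing the appropriate inhibition level. GI50 is the concentration that inhibits growth by half.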 Calls of active or inactive are those of the source. No stated cut-off is given here; in the data, active = GI50 up to about 1.1 µM and inactive = higher.

Experiments:
Assay in all cases: DTP human tumour cell line panel, 48 h
786-0 = test system: 786-0
A549 = test system: A549
ACHN = test system: ACHN
BT-549 = test system: BT-549
COLO 205 = test system: COLO 205
Hs-578T = test system: Hs-578T
MDA-MB-231 = test system: MDA-MB-231
MDA-N = test system: MDA-N
Malme-3M = test system: Malme-3M
NCI-H226 = test system: NCI-H226
NCI-H23 = test system: NCI-H23
OVCAR-5 = test system: OVCAR-5
OVCAR-8 = test system: OVCAR-8
RXF 393 = test system: RXF 393
SF-295 = test system: SF-295
TK-10 = test system: TK-10
UACC-257 = test system: UACC-257
UO-31 = test system: UO-31
HL-60 = test system: HL-60
SF-539 = test system: SF-539

| Compound | GI50 (786-0) | GI50 (A549) | GI50 (ACHN) | GI50 (BT-549) | GI50 (COLO 205) | GI50 (Hs-578T) | GI50 (MDA-MB-231) | GI50 (MDA-N) | GI50 (Malme-3M) | GI50 (NCI-H226) | GI50 (NCI-H23) | GI50 (OVCAR-5) | GI50 (OVCAR-8) | GI50 (RXF 393) | GI50 (SF-295) | GI50 (TK-10) | GI50 (UACC-257) | GI50 (UO-31) | GI50 (HL-60) | GI50 (SF-539) |
| --- | --- | --- | --- | --- | --- | --- | --- | --- | --- | --- | --- | --- | --- | --- | --- | --- | --- | --- | --- | --- |
| CN(C)c1ccc(/C=N/CC2CCCN3CCCCC23)cc1 (stereo unspecified) | > 100 µM (inactive) | > 100 µM (inactive) | > 100 µM (inactive) | > 100 µM (inactive) | 42.7 µM (inactive) | 24.8 µM (inactive) | > 100 µM (inactive) | > 100 µM (inactive) | > 100 µM (inactive) | > 100 µM (inactive) | > 100 µM (inactive) | > 100 µM (inactive) | > 100 µM (inactive) | 47.3 µM (inactive) | > 100 µM (inactive) | > 100 µM (inactive) | > 100 µM (inactive) | > 100 µM (inactive) | – | – |
| C[C@]12CC(c3ccccc3O1)C(C(=O)Nc1nc(C34CC5CC(CC(C5)C3)C4)cs1)C(=O)N2 (stereo partly specified) | > 100 µM (inactive) | > 100 µM (inactive) | > 100 µM (inactive) | > 100 µM (inactive) | > 100 µM (inactive) | > 100 µM (inactive) | > 100 µM (inactive) | – | 34.7 µM (inactive) | > 100 µM (inactive) | > 100 µM (inactive) | > 100 µM (inactive) | > 100 µM (inactive) | > 100 µM (inactive) | – | – | > 100 µM (inactive) | – | > 100 µM (inactive) | – |
| CN(/N=C/C=N/N(C)C1=NCCCCN1)C1=NCCCCN1 | > 100 µM (inactive) | > 100 µM (inactive) | > 100 µM (inactive) | > 100 µM (inactive) | > 100 µM (inactive) | > 100 µM (inactive) | > 100 µM (inactive) | > 100 µM (inactive) | > 100 µM (inactive) | > 100 µM (inactive) | > 100 µM (inactive) | > 100 µM (inactive) | > 100 µM (inactive) | > 100 µM (inactive) | > 100 µM (inactive) | > 100 µM (inactive) | > 100 µM (inactive) | > 100 µM (inactive) | – | > 100 µM (inactive) |
| C#CCn1ncc2c(SC)ncnc21 | > 100 µM (inactive) | > 100 µM (inactive) | > 100 µM (inactive) | > 100 µM (inactive) | > 100 µM (inactive) | > 100 µM (inactive) | > 100 µM (inactive) | > 100 µM (inactive) | > 100 µM (inactive) | > 100 µM (inactive) | > 100 µM (inactive) | > 100 µM (inactive) | > 100 µM (inactive) | > 100 µM (inactive) | > 100 µM (inactive) | > 100 µM (inactive) | > 100 µM (inactive) | > 100 µM (inactive) | – | > 100 µM (inactive) |
| O=C1N2CCC[C@H]2CS1(=O)=O | 11.1 µM (inactive) | 22.8 µM (inactive) | 15.2 µM (inactive) | 14.8 µM (inactive) | 12.2 µM (inactive) | 55.1 µM (inactive) | 15.4 µM (inactive) | – | 13.2 µM (inactive) | 25.4 µM (inactive) | 15.8 µM (inactive) | 36.9 µM (inactive) | 13.6 µM (inactive) | 7.36 µM (inactive) | 40.2 µM (inactive) | 18.2 µM (inactive) | 18.7 µM (inactive) | 14.5 µM (inactive) | 19.1 µM (inactive) | 29.5 µM (inactive) |
| O=[N+]([O-])c1cccc(/N=C2\c3ccccc3CN2c2cccc([N+](=O)[O-])c2)c1 | 50.7 µM (inactive) | > 100 µM (inactive) | 74.5 µM (inactive) | > 100 µM (inactive) | > 100 µM (inactive) | 37.8 µM (inactive) | > 100 µM (inactive) | > 100 µM (inactive) | – | > 100 µM (inactive) | > 100 µM (inactive) | > 100 µM (inactive) | > 100 µM (inactive) | 31.9 µM (inactive) | > 100 µM (inactive) | > 100 µM (inactive) | > 100 µM (inactive) | > 100 µM (inactive) | – | 71 µM (inactive) |
| COC(=O)c1ccc(C(=O)NC(Cc2ccc(Oc3cc(CC(NC(=O)c4ccccc4C(=O)OC)C(=O)OC)ccc3OC)cc2)C(=O)OC)cc1 (stereo unspecified) | > 100 µM (inactive) | > 100 µM (inactive) | > 100 µM (inactive) | 74.8 µM (inactive) | > 100 µM (inactive) | 4.21 µM (inactive) | – | > 100 µM (inactive) | > 100 µM (inactive) | > 100 µM (inactive) | > 100 µM (inactive) | > 100 µM (inactive) | 86.3 µM (inactive) | – | 43.9 µM (inactive) | > 100 µM (inactive) | > 100 µM (inactive) | > 100 µM (inactive) | > 100 µM (inactive) | 63.5 µM (inactive) |
| CS(=O)(=O)NC12CCC(c3ccccc31)c1ccccc12 | > 100 µM (inactive) | > 100 µM (inactive) | > 100 µM (inactive) | > 100 µM (inactive) | > 100 µM (inactive) | > 100 µM (inactive) | > 100 µM (inactive) | > 100 µM (inactive) | > 100 µM (inactive) | > 100 µM (inactive) | > 100 µM (inactive) | > 100 µM (inactive) | – | – | – | > 100 µM (inactive) | – | > 100 µM (inactive) | > 100 µM (inactive) | > 100 µM (inactive) |
| Cc1ccc(S(=O)(=O)OC2C3OC(C)(C)OC3OC2C(c2cc(O)c3c(c2O)C(=O)c2ccccc2C3=O)c2cc(O)c3c(c2O)C(=O)c2ccccc2C3=O)cc1 (stereo unspecified) | > 10 µM (inactive) | > 10 µM (inactive) | > 10 µM (inactive) | > 10 µM (inactive) | > 10 µM (inactive) | > 10 µM (inactive) | > 10 µM (inactive) | > 10 µM (inactive) | > 10 µM (inactive) | > 10 µM (inactive) | > 10 µM (inactive) | > 10 µM (inactive) | > 10 µM (inactive) | – | > 10 µM (inactive) | > 10 µM (inactive) | > 10 µM (inactive) | > 10 µM (inactive) | > 10 µM (inactive) | > 10 µM (inactive) |
| CSc1ccsc1-c1sc(-c2cc(SC)c(-c3sc(-c4cc(SC)c(-c5sccc5SC)s4)cc3SC)s2)cc1SC | 15.3 µM (inactive) | 90.8 µM (inactive) | 32.9 µM (inactive) | 64.3 µM (inactive) | 33.4 µM (inactive) | > 100 µM (inactive) | > 100 µM (inactive) | – | 29.4 µM (inactive) | – | 64.9 µM (inactive) | > 100 µM (inactive) | > 100 µM (inactive) | > 100 µM (inactive) | > 100 µM (inactive) | > 100 µM (inactive) | > 100 µM (inactive) | – | 0.356 µM (active) | > 100 µM (inactive) |
| O=c1[nH]n(CCc2ccccc2CCl)c2ccc([N+](=O)[O-])cc12 | 93.8 µM (inactive) | 99.1 µM (inactive) | > 100 µM (inactive) | 33.3 µM (inactive) | > 100 µM (inactive) | 54.3 µM (inactive) | 76.2 µM (inactive) | – | > 100 µM (inactive) | 95.9 µM (inactive) | 89.9 µM (inactive) | > 100 µM (inactive) | 71.3 µM (inactive) | 92.3 µM (inactive) | 52.5 µM (inactive) | > 100 µM (inactive) | 70.6 µM (inactive) | 25 µM (inactive) | 29.4 µM (inactive) | > 100 µM (inactive) |
| CCOC(=O)c1nc2ccccc2nc1Oc1ccc(F)cc1 | > 100 µM (inactive) | > 100 µM (inactive) | 84.3 µM (inactive) | > 100 µM (inactive) | > 100 µM (inactive) | 39.3 µM (inactive) | > 100 µM (inactive) | > 100 µM (inactive) | – | > 100 µM (inactive) | – | > 100 µM (inactive) | > 100 µM (inactive) | 46.8 µM (inactive) | 70.6 µM (inactive) | > 100 µM (inactive) | > 100 µM (inactive) | > 100 µM (inactive) | – | > 100 µM (inactive) |
| FC(F)(F)c1cnc(N/N=C(/c2ccccc2)c2ccccn2)c(Cl)c1 | 4.12 µM (inactive) | 3.53 µM (inactive) | 3.21 µM (inactive) | 11.1 µM (inactive) | 2.51 µM (inactive) | 9.14 µM (inactive) | 5.57 µM (inactive) | 23.8 µM (inactive) | – | 13.2 µM (inactive) | 7.26 µM (inactive) | 6.87 µM (inactive) | 2.39 µM (inactive) | 12.3 µM (inactive) | 3.4 µM (inactive) | – | 2.49 µM (inactive) | 4.94 µM (inactive) | – | 4.6 µM (inactive) |
| O=c1[nH]nc(Cc2ccccc2)n1/N=C/c1ccco1 | > 100 µM (inactive) | > 100 µM (inactive) | > 100 µM (inactive) | > 100 µM (inactive) | > 100 µM (inactive) | 10 µM (inactive) | > 100 µM (inactive) | – | > 100 µM (inactive) | > 100 µM (inactive) | > 100 µM (inactive) | 80 µM (inactive) | > 100 µM (inactive) | 24 µM (inactive) | > 100 µM (inactive) | – | > 100 µM (inactive) | > 100 µM (inactive) | – | > 100 µM (inactive) |
| O=c1c2ccccc2nc2sc(/N=C/C=C/c3ccccc3)nn12 | > 100 µM (inactive) | > 100 µM (inactive) | > 100 µM (inactive) | > 100 µM (inactive) | > 100 µM (inactive) | > 100 µM (inactive) | – | > 100 µM (inactive) | > 100 µM (inactive) | > 100 µM (inactive) | > 100 µM (inactive) | > 100 µM (inactive) | > 100 µM (inactive) | > 100 µM (inactive) | > 100 µM (inactive) | > 100 µM (inactive) | > 100 µM (inactive) | 77.4 µM (inactive) | – | > 100 µM (inactive) |
